Source: the supplement of paper PMC7017272
± gives the standard deviation of the averaged measurements.

How the values were obtained:
Conditions in all cases: treatment time: 3 days
UT-SCC-81 [1] = assay: maximal % inhibition of viability relative to DMSO; higher = stronger effect
Method: (§1)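 HNSCC cell lines (500 cells/well, 384-well) were cultured on plastic, on top of (2D) or embedded (3D) in Matrigel or human leiomyoma matrix Myogel (500 ug/mL; Myogel 3D mixed with rat collagen I). Cells were treated for 3 days with 5 ten-fold concentrations of each drug, and viability was read by CellTiter-Glo. Viability was normalised to DMSO and benzethonium chloride controls and fitted with the FIMM DSRT pipeline to give IC50 (nM), maximal % inhibition and DSS. Suffixes _1/_2/_3 are replicates. Only inhibition-mode (IC50) fits are kept.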

UT-SCC-106A = assay: as above
Method: as §1

UT-SCC-28 [2] = assay: as above
Method: as §1

UT-SCC-24B = assay: relative IC50 (midpoint of the fitted curve; maximal inhibition may be below 50%); higher = less potent
How it was run: (§2)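 Viability was read with CellTiter-Glo 2.0 luminescence and scaled against vehicle (0.1% DMSO) and cell-killing control wells. The assay used HPV-negative HNSCC cell lines at 500 cells/well in 384-well plates, grown on plastic, on Matrigel or Myogel coatings (500 µg/mL), or embedded in Matrigel or Myogel plus rat collagen I, and treated for 3 days at five 10-fold concentrations. IC50, maximal inhibition and drug sensitivity score were derived from percent-inhibition dose–response curves fitted in the FIMM pipeline.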

UT-SCC-14 = assay: as above
How it was run: as §2

UT-SCC-8 = assay: as above
How it was run: as §2

UT-SCC-42A = assay: as above
How it was run: as §2

UT-SCC-81 [3] = assay: as above
How it was run: as §2

UT-SCC-28 [4] = assay: as above
How it was run: as §2

[5] = culture condition: embedded in Myogel + collagen I
[6] = culture condition: on top of Matrigel
[7] = culture condition: on top of Myogel
[8] = culture condition: plastic 2D (no matrix)
[9] = culture condition: embedded in Matrigel

Structure (SMILES): COc1ncc(-c2ccc3nccc(-c4ccnnc4)c3c2)cc1NS(=O)(=O)c1ccc(F)cc1F [Omipalisib]
- maximal % inhibition of viability (UT-SCC-81 [1]; [5]): 89.1 ± 0.91%
- maximal % inhibition of viability (UT-SCC-81 [1]; [6]): 96.83 ± 0.76%
- maximal % inhibition of viability (UT-SCC-81 [1]; [7]): 90.3 ± 1.4%
- maximal % inhibition of viability (UT-SCC-81 [1]; [8]): 91.9 ± 2.2%
- maximal % inhibition of viability (UT-SCC-106A; [9]): 79.7 ± 2.2%
- maximal % inhibition of viability (UT-SCC-106A; [5]): 64.2 ± 3.3%
- maximal % inhibition of viability (UT-SCC-106A; [6]): 81.2 ± 0.87%
- maximal % inhibition of viability (UT-SCC-106A; [7]): 69.7 ± 2.8%
- maximal % inhibition of viability (UT-SCC-106A; [8]): 81.53 ± 0.67%
- maximal % inhibition of viability (UT-SCC-28 [2]; [9]): 60.7 ± 5.8%
- maximal % inhibition of viability (UT-SCC-28 [2]; [5]): 83 ± 5.5%
- maximal % inhibition of viability (UT-SCC-28 [2]; [6]): 64.3 ± 4.8%
- maximal % inhibition of viability (UT-SCC-28 [2]; [8]): 60.8 ± 3.6%
- relative IC50 (UT-SCC-24B; [9]): 11 nM
- relative IC50 (UT-SCC-24B; [5]): 9.4 nM
- relative IC50 (UT-SCC-24B; [6]): 11.6 nM
- relative IC50 (UT-SCC-24B; [7]): 15.8 nM
- relative IC50 (UT-SCC-24B; [8]): 12.8 nM
- relative IC50 (UT-SCC-14; [9]): 5.67 nM
- relative IC50 (UT-SCC-14; [6]): 8.29 nM
- relative IC50 (UT-SCC-14; [7]): 11.2 nM
- relative IC50 (UT-SCC-14; [8]): 6.77 nM
- relative IC50 (UT-SCC-8; [9]): 5.05 nM
- relative IC50 (UT-SCC-8; [6]): 7.5 nM
- relative IC50 (UT-SCC-8; [7]): 8.01 nM
- relative IC50 (UT-SCC-8; [8]): 6.97 nM
- relative IC50 (UT-SCC-42A; [9]): 15.6 nM
- relative IC50 (UT-SCC-42A; [5]): 16.6 nM
- relative IC50 (UT-SCC-42A; [6]): 13.2 nM
- relative IC50 (UT-SCC-42A; [7]): 16.4 nM
- relative IC50 (UT-SCC-42A; [8]): 11.5 nM
- relative IC50 (UT-SCC-81 [3]; [9]): 4 nM
- relative IC50 (UT-SCC-81 [3]; [5]): 8.83 nM
- relative IC50 (UT-SCC-81 [3]; [6]): 5.22 nM
- relative IC50 (UT-SCC-81 [3]; [7]): 9.49 nM
- relative IC50 (UT-SCC-81 [3]; [8]): 8.77 nM
- relative IC50 (UT-SCC-28 [4]; [9]): 2.99 nM
- relative IC50 (UT-SCC-28 [4]; [5]): 12.8 nM
- relative IC50 (UT-SCC-28 [4]; [6]): 5.19 nM
- relative IC50 (UT-SCC-28 [4]; [8]): 5.26 nM
